Key:
[1] = Induction of apoptosis in human U373 MG cells at 1 uM relative to control; assay type: functional, U-373MG ATCC
[2] = Cytotoxicity against human U-343MG cells; assay type: functional, cell-based
U-251 [3] = assay: Cytotoxicity against human U-251MG cells assessed as reduction in cell growth measured for 48 hrs by MTT assay; assay type: functional, cell-based; conditions: U-251, 48 h
U-251 [4] = assay: Antitumor activity against human U-251MG cells xenografted in BALB/c nude mouse assessed as reduction in tumor growth at 8 mg/kg, ip administered once daily and measured after 28 days relative to control; assay type: functional; conditions: U-251, 672 h, time 28 day, read-out: TGI
U-87 MG [5] = assay: Cytotoxicity against human U-87 MG cells assessed as reduction in cell growth measured for 48 hrs by MTT assay; assay type: functional, cell-based, U-87MG ATCC
U-251 [6] = assay: Antitumor activity against human U-251MG cells xenografted in BALB/c nude mouse assessed as reduction in tumor growth at 4 mg/kg, ip administered once daily and measured after 28 days relative to control; assay type: functional; conditions: U-251, 672 h, time 28 day, read-out: TGI
U-87 MG [7] = assay: Antiproliferative activity against human U-87 MG cells by MTT assay; assay type: functional, cell-based, U-87MG ATCC
U-87 MG [8] = assay: Antiproliferative activity against human U-87 MG cells measured for 48 hrs by MTT assay; assay type: functional, cell-based, U-87MG ATCC
C6 [9] = assay: Antiproliferative activity against rat C6 cells by MTT assay; assay type: functional, cell-based
U-251 [10] = assay: Antiproliferative activity against human U-251MG cells; assay type: functional, cell-based
U-87 MG [11] = assay: Antiproliferative activity against human U-87-MG cells; assay type: functional, cell-based, U-87MG ATCC
U-251 [12] = assay: Growth inhibition of human U-251MG cells measured for 48 hrs by SRB assay; assay type: functional
C6 [13] = assay: Cytotoxicity against rat C6 cells assessed as reduction in cell viability incubated for 48 hrs by trypan blue dye based assay; assay type: functional; conditions: C6, 48 h
[14] = Cytotoxicity against human U373 MG cells by MTT assay; assay type: functional, cell-based, U-373MG ATCC
Hs 683 = assay: Cytotoxicity against human Hs 683 cells by MTT assay; assay type: functional, cell-based
[15] = Antiproliferative activity against human GSC#1 cells assessed as reduction in cell growth incubated for 72 hrs by MTS assay; assay type: functional, cell-based; conditions: GSC#1, 72 h
T98G = assay: Antiproliferative activity against human T98G cells assessed as reduction in cell growth incubated for 72 hrs by MTS assay; assay type: functional, cell-based
U-87 MG [16] = assay: Antiproliferative activity against human U-87 MG cells assessed as reduction in cell growth incubated for 72 hrs by MTS assay; assay type: functional, cell-based, U-87MG ATCC
U-87 MG [17] = assay: Antitumor activity against human U-87 MG cells implanted with chicken egg assessed as reduction in tumor weight at 10 uM measured after 7 days by microscopic analysis (reference value: 27.87+/-4.7 mg); assay type: functional, U-87MG ATCC; conditions: time 7 day
U-118-MG = assay: Cytotoxicity against human U-118-MG cells assessed as reduction in cell viability measured after 24 hrs by MTT assay; assay type: functional, cell-based
A 172 = assay: Cytotoxicity against human A-172 cells assessed as reduction in cell viability measured after 24 hrs by MTT assay; assay type: functional, cell-based; conditions: A 172, 24 h
[18] = Toxicity in human U-87MG cells xenografted in nude mouse assessed as lethal dose at 10 mg/kg, ip administered once daily for 20 days relative to control; assay type: organism-based; conditions: in vivo, time 20 day
U-87 MG [19] = assay: Cytotoxicity against human U-87 MG cells assessed as reduction in cell viability measured after 24 hrs by MTT assay; assay type: functional, cell-based, U-87MG ATCC
U-251 [20] = assay: Cytotoxicity against human U-251MG cells assessed as reduction in cell viability measured after 24 hrs by MTT assay; assay type: functional, cell-based; conditions: U-251, 24 h

C=C[C@H]1CN2CCc3c([nH]c4c([C@@H]5CCCN5C)c(O)ccc34)[C@@H]2C[C@@H]1C[C@H]1c2[nH]c3ccccc3c2CCN1C
Activity [1]: 80% | IC50 [2]: ~1 µM

c1ccc2c(c1)[nH]c1c2cc[n+]2cc3c(cc12)CCCC3
IC50 (U-251 [3]): 4.98 µM | inhibition in vivo at 8 mg/kg (U-251 [4]): 58.9% | IC50 (U-87 MG [5]): 4.71 µM | inhibition in vivo at 4 mg/kg (U-251 [6]): 49.5%

CN1c2ccccc2C(=O)N2CCc3c([nH]c4ccccc34)[C@H]21
IC50 (U-87 MG [7]): 3.7 µM | IC50 (U-87 MG [8]): 5.21 µM | IC50 (C6 [9]): 4.3 µM

C[C@@H](O)c1cc2ccncc2c(=O)[nH]1
IC50 (U-251 [10]): 13.4 µM | IC50 (U-87 MG [11]): 7.9 µM

C/C=C1/CN2C3C[C@H]1[C@H](CO)[C@@H]2Cc1c3n(C)c2ccccc12
GI50 (U-251 [12]): 9.5 µM

COc1cc(C2(O)C(=O)N=C(N)N2C)ccc1O (centres undefined)
IC50 (C6 [13]): 155 µM

CC(C)[C@@]12NC(=O)[C@@H](Cc3c1[nH]c1ccccc31)n1c2nc2ccccc2c1=O
IC50 [14]: 44 µM | IC50 (Hs 683): 50 µM

CC[C@]12C=CC(CC(C)=O)N3CC[C@]4(C(=C(C(=O)OC)C1)Nc1ccccc14)[C@@H]32 (some centres undefined)
IC50 [15]: 1.3 µM | IC50 (T98G): 4.3 µM | IC50 (U-87 MG [16]): 1.7 µM

COc1cc2c3cc1Oc1c(OC)c(OC)cc4c1[C@@H](Cc1ccc(O)c(c1)Oc1ccc(cc1)C[C@@H]3N(C)CC2)N(C)CC4 [BERBAMINE]
Activity (U-87 MG [17]): 5.28 mg

COc1cc2c(cc1OC)[C@@]13CCN4CC5=CCO[C@H]6CC(=O)N2[C@H]1[C@H]6[C@H]5C[C@H]43 [BRUCINE]
IC50 (U-118-MG): 536 µM | IC50 (A 172): 527 µM | LD50 at 480 h [18]: 13.2 mg/kg | IC50 (U-87 MG [19]): 604 µM | IC50 (U-251 [20]): 614 µM
